From publication PMC8066833 (Pharmaceuticals, 2021)

Legend:
HSV-1 [1] = experiment: HSV-1 inactivation: virus pre-incubated with peptoid, infection of OKF6/TERT-1 cells, HSV-1 DNA by QPCR; type: cell-based, Herpes Simplex Virus-1; settings: for Activity against HSV-1 (screening, HSV-1 DNA by QPCR relative to β-actin): virus incubated with peptoid at 20 µg/mL for 2 h at 37 °C, then infection of OKF6/TERT-1 cells for 24 h
HSV-1-GFP = experiment: Fluorescence imaging of HSV-1-GFP infection; type: cell-based, Herpes Simplex Virus-1; settings: virus treated at 20 µg/mL for 2 h; control-treated virus showed strong fluorescence
HSV-1 [2] = experiment: Electron microscopy (negative staining and cryo-EM) of peptoid-treated HSV-1; design: species or system Herpes Simplex Virus-1; settings: HSV-1 treated 2 h at 37 °C; untreated controls 21% unenveloped capsids
Protocol: Figure 3 Transmission electron microscope imaging of peptoid-treated HSV-1 vs. controls and comparative analysis of results. Virus was treated for 2 h at 37 °C followed by preparation for EM imaging as described in Materials and Methods. (A) Negative stained EM. (B) Cryo-EM. Visible in the control samples are the viral envelope and intact capsid (both panels). In the samples treated with the peptoids we observe both disrupted envelopes (top panels) and naked capsids (bottom panels).
HSV-1 (1 × 10^8 pfu/mL) was incubated with peptoids or control medium for 2 h. at 37 °C. After incubation, the virus was fixed by addition of 2 volumes 4% glutaraldehyde/PBS, and fixed at 4 °C for 24 h. Virus was applied to grids (ultrathin carbon with lacey support film, Ted Pella, Inc.) for 1 min, followed by staining in 1% phosphotungstic acid for 1 min. Excess liquid was blotted and grids were allowed to air dry. Images were collected using a Thermo Scientific™ Talos™ F200X at 200 kV accelerating voltage with 50 μm objective aperture inserted to enhance contrast. Images were captured using a 4k × 4k CMOS camera (Thermo Scientific, Waltham, MA, USA, Ceta 16M™).
After incubation of HSV-1 virus with peptoids for 2 h. at 37 °C, samples were vitrified using Leica EM-GP2® plunger (Leica Microsystems) as previously described on carbon holey film (R2 × 1 Quantifoil®; Micro Tools GmbH, Jena, Germany) grids. […]

EpiOral cells = type: cell-based, human; settings: 3D primary oral epithelial cultures (EpiOral), apical application for 3 h, any concentration up to 256 µg/mL, n = 3 wells per concentration
Protocol: To provide further evidence to support the development of these agents as potential therapeutics, we assayed cytotoxicity against cultured cells. To provide the optimal in vitro toxicity model, we used 3-dimensional primary cultures of oral epithelial cells (EpiOral, MatTek Life Sciences, Ashland, MA, USA), grown at an air-liquid interface. The cultures were tested in the presence of increasing concentrations of MXB-4, MXB-5 and MXB-9 for 3 h, applied to the apical surface. Viability was monitored using the MTT assay. […] Incubation with 50% ethanol led to 0% viability (not shown).
Figure 6 In vitro toxicity of peptoids. Peptoids were incubated on the apical surface of cultured EpiOral cells (n = 3 wells per concentration) for 3 h. Cell viability was quantified by MTT assay and are shown as mean percent survival +/− SD. Results shown are representative of two independent replicate experiments.
Normal human bronchial epithelial cells, obtained from MatTek (EpiAirway) were grown at an air-liquid interface at 37 °C. […] Cell viability was quantified using the CyQUANT MTT Cell Viability Assay (ThermoFisher, Waltham, MA, USA), following the manufacturer’s instructions Absorbance was read at 540 nm and percent survival was calculated relative to untreated cultures. […]

[3] = Small Angle X-ray Scattering, self-assembly in aqueous PBS buffer; type: physicochemical; settings: unpublished data, manuscript in preparation
Text: Comparing the structures of the ten peptoids on our new library with regard to antiviral activity, halogenation seems to be beneficial as every active compound (except MXB-5) includes at least two Nspe(p-Br) submonomers. […] This difference in activity potentially can be explained by differences in net molecular hydrophobicity upon halogen substitution as previously reported by Molchanova et al.. In this study they found an increasing antimicrobial activity correlating with increasing hydrophobicity, until a threshold was reached where the activity dropped. […] Further studies are needed to make definitive conclusions about these effects. We believe that a certain type and degree and stability of peptoid self-assemblies in aqueous media can be an important determinant of both activity, and selectivity. If assemblies remain intact near zwitterionic mammalian cells, but disassemble near anionic pathogenic membranes, they can be selective towards affecting pathogens while causing little to no harm to the host.

Pseudomonas aeruginosa = settings: cited from earlier work
Text: (§1) This effort led to the development of MXB-5 [H-Ntridec-NLys-Nspe-Nspe-NLys-NH2; see Figure 1 for structure), a peptoid with a 13-carbon N-terminal alkyl modification, that shares some structural similarities with MXB-1 [31]. […] In one in vivo experiment which has been presented orally online, mice were infected intratracheally with bioluminescent Pseudomonas aeruginosa, and were ...

mammalian cells = settings: cited from earlier work
Text: as §1

[4] = test system: Pseudomonas aeruginosa biofilms; settings: cited from earlier work
[5] = delivered intraperitoneally to treat a bacterial infection; cited from earlier work
Text: Peptoid 1 [H-(NLys-Nspe-Nspe)4-NH2], designated here as MXB-1, is a 12-mer with the trimer sequence motif NLys-Nspe-Nspe repeated four times (structures of the monomers are shown in Figure 1A). It is a helical peptoid with broad-spectrum activity against a variety of pathogens, including viruses as shown here; it is also active against fungi and bacterial biofilms.

Substance	Activity against HSV-1, dose-dependence (HSV-1 [1]; 20 µg/mL for 2 h (5 and 20 µg/mL tested), Figure 2B)	Incubation time at which inactivation of HSV-1 is seen (time course) (HSV-1 [1]; time course, Figure 2C) [min]	Activity against HSV-1 (screening, HSV-1 DNA by QPCR relative to β-actin) (HSV-1 [1])	GFP fluorescence in cells at 24 h post-infection (viral replication) (HSV-1-GFP)	Cryo-EM quantification of whole virus, disrupted envelopes and naked capsids (HSV-1 [2])	Cytotoxicity (viability by MTT assay) (EpiOral cells)	Self-assembled structure in solution (SAXS) [3]	Tolerability in the lungs of the mice (Pseudomonas aeruginosa; intratracheal infection model)	Bacterial loads compared to untreated animals (Pseudomonas aeruginosa; mice, intratracheal infection with bioluminescent Pseudomonas aeruginosa)	Cytotoxicity to mammalian cells relative to MXB-1 (mammalian cells)	Activity against Pseudomonas aeruginosa biofilms [4]	Tolerability when delivered intraperitoneally [5]
H-Ntridec-NLys-Nspe-Nspe-NLys-NH2 [MXB-5]	strong activity	≤ 30	strong activity	very weak fluorescence	large increase in both unenveloped capsids	no observable cytotoxicity	stable core-shell ellipsoidal micellar structures	well tolerated	significant reduction in bacterial loads	significantly less cytotoxic	highly active	
H-(NLys-Nspe-Nspe)4-NH2 [MXB-1]												reasonably well tolerated
LL-37: human cathelicidin AMP, natural human host defense peptide (LLGDFFRKSKEKIGKEFKRIVQRIKDFLRNLVPRTES; Antibacterial peptide LL-37; UniProt P49913 134-170, looked up) [reference compound]			direct inactivation of HSV-1									
